Results reported in US7012086B1, “Treatment of retrovirus induced derangements with niacin compounds” (The Foundation For Innovative Therapies, Inc., priority 2000, dated 2006).

Experiments:
HIV infected persons [1] = experiment: Clinical trial of niacin (nicotinamide) in HIV infected persons: plasma amino acids by HPLC, tolerability; type: in vivo, human
Experimental: Four HIV infected persons participated in a trial of niacin in the form of nicotinamide. The participants were at various stages of their HIV infection as judged by their CD4 counts which ranged from 0 to 620 [see table 1]. […] Two of the participants had known co-infections infections typical of HIV infected persons. Each participant took 3 grams of nicotinamide per day for 2 months. […] Each participant's plasma tryptophan was measured prior to treatment and at the end of treatment [see table 3]. […] All amino acid concentrations were measured by High Performance Liquid Chromotography [HPLC].

HIV infected persons [2] = conditions: cited from earlier work

Q: With `NC(=O)c1cccnc1` [nicotinamide] as the compound, how does the “adverse side effects of treatment” value (HIV infected persons [1]; 3 grams of nicotinamide per day for 2 months, four HIV infected persons) read?
A: The value was “not associated with any adverse side effects”.

Q: What about the “average increase of plasma tryptophan of all participants” value (HIV infected persons [1]; 3 grams of nicotinamide per day orally for 2 months, four HIV infected persons, before vs end of treatment, p=0.0112 (paired t-test)) of the same compound?
A: The value was 43.9%.

Q: Which “effect on plasma tryptophan in HIV infected persons” value (HIV infected persons [2]; HIV infected persons) does the source give for `Cc1cn([C@H]2C[C@H](N=[N+]=[N-])[C@@H](CO)O2)c(=O)[nH]c1=O` [Zidovudine, zidovudine] here?
A: The value was “replete plasma tryptophan”.

Q: What about the side effects (HIV infected persons [2]; in vivo) of the same compound?
A: The side effects was “headache, nausea, and bone marrow suppression”.

Q: For `O=C(O)c1cccnc1` [Niacin], which “tryptophan status (plasma tryptophan), in words” value (HIV infected persons [1]; four patients across the range of baseline CD4 count, antiviral medication and co-infections) is on record?
A: Its value is “improve tryptophan status in all four patients”.
